Where a name gives a salt, the structure may show the parent alone. Read-outs that look alike come from different tables or passages of the source.
How the values were obtained:
[1] = test system: Human breast cancer cell line T47D; test: Cell based caspase-3 activity assay: potentiation of MMS induced apoptosis; settings: T47D cells, 11.1 μg/ml MMS, 24 hours, intracellular caspase-3 activity, read-out: EC50 (nM), potentiation of the apoptosis inducing activity of MMS
Method in brief: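 T47D cells were exposed for 24 h to compound plus a minimally apoptotic MMS dose (medium containing 11.1 μg/ml MMS). Lysates were incubated 3 h at 37 °C with (Ac-DEVD)2-R110 caspase-3 substrate (20 μM in added buffer) and read at ex 496/em 520 nm. EC50 came from a sigmoidal fit of RFU versus log concentration.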

[2] = test system: SW620 human colorectal cancer cells; test: MTT based cell viability assay: potentiation of the growth inhibiting activity of MMS
Protocol: Briefly, SW620 human colorectal cancer cells were used to measure the cell growth inhibiting activity of DNA alkylating anticancer drug MMS. […] SW620 cells were grown and maintained in RPMI1640 (Gibco) medium supplemented with 10% FBS (Hyclone). In the first day of experiment, 4000 cells were seeded to each well of a 96-well cell culture plate and incubated at 37° C. and 5% CO2 in a cell culture incubator overnight. In the next day, the cell culture medium was removed. […] The serial dilutions of the reference compounds and the compounds to be tested were made with a 1:3 and 1:10 fashion in DMSO. The 10-fold concentrated solutions of these compounds were made by mixing 10 μl of the serial dilutions in DMSO with 90 μl fresh medium. The final concentration of DMSO in the medium was 1%. The cells were incubated at 37° C. in 5% CO2 cell culture incubator for additional 5 days (120 hours). Afterwards, the 96-well cell culture plate was taken out and 20 μl of MTT solution was added to each well and incubated at 37° C. for 4 h. The medium was removed and 100 μl DMSO was added to each well. The 96-well cell culture plates were shaked adequately for 10 min and read in a Varioskan Flash plate reader (Thermo Fisher Scientific) at 520 and 690 nm. The data were analyzed by Prism 5 software (GraphPad). The obtained 520 nm absorbance readings subtracting corresponding 690 nm reading were analyzed and plotted against the Log scale of the compound concentrations.

[3] = Homo sapiens, SW-620, 120 h, read-out: IC50 (nM), potentiation of the growth inhibiting activity of MMS, SW620 cells, 1.7 μg/ml MMS, 5 days (120 hours), MTT
[4] = read-out: IC50 (nM), potentiation of the growth inhibiting activity of MMS, SW620 cells, 1.7 μg/ml MMS, 5 days (120 hours), MTT

| Compound | EC50 ([1]; Homo sapiens, T47D, 24 h) | IC50 [2, 3] | further results |
| --- | --- | --- | --- |
| O=C(c1cccc(Cn2c(=O)[nH]c(=O)c3ccccc32)c1)N1CCC(N2CCCCC2)CC1 [Example 28, 1-(3-(4-(Piperidin-1-yl)piperidine-1-carbonyl)benzyl)quinazoline-2,4(1H,3H)-dione] | 5890 nM | > 10000 nM | – |
| CCS(=O)(=O)N1CCN(C(=O)c2cccc(Cn3c(=O)[nH]c(=O)c4ccccc43)c2)CC1 [Example 16, 1-(3-(4-(Ethylsulfonyl)piperazine-1-carbonyl)benzyl)quinazoline-2,4(1H,3H)-dione] | 9210 nM | 7260 nM | – |
| O=C(c1ccc(F)c(Cn2c(=O)[nH]c(=O)c3cc(Cl)ccc32)c1)N1CCN(C(=O)C2CCCCC2)CC1 [Example 125, 6-Chloro-1-(3-(4-(cyclohexylcarbonyl)piperazine-1-carbonyl)-6-fluorobenzyl)quinazoline-2,4(1H,3H)-dione] | 22 nM | 6.7 nM | – |
| O=C(c1cccs1)N1CCN(C(=O)c2cc(Cn3c(=O)[nH]c(=O)c4cc(Cl)ccc43)ccc2F)CC1 [Example 121, 6-Chloro-1-(4-fluoro-3-(4-(thiophene-2-carbonyl)piperazine-1-carbonyl)benzyl)quinazoline-2,4(1H,3H)-dione] | 4.9 nM | 4.5 nM | – |
| O=C(c1ccc(F)c(Cn2c(=O)[nH]c(=O)c3c(Cl)cccc32)c1)N1CCN(C(=O)C2CCCCC2)CC1 [Example 108, 5-Chloro-1-(3-(4-(cyclohexylcarbonyl)piperazine-1-carbonyl)-6-fluorobenzyl)quinazoline-2,4(1H,3H)-dione] | 68 nM | 78 nM | – |
| O=C(c1cccc(Cn2c(=O)[nH]c(=O)c3ccccc32)c1)N1CCN(c2ccc3nncn3n2)CC1 [Example 6, 1-(3-(4-([1,2,4]Triazolo[4,3-b]pyridazin-6-yl)piperazine-1-carbonyl)benzyl)quinazoline-2,4(1H,3H)-dione] | 2520 nM | 7030 nM | – |
| O=C(c1cccc(Cn2c(=O)[nH]c(=O)c3cc(Br)ccc32)c1)N1CCN(C(=O)C2CCCC2)CC1 [Example 87, 6-Bromo-1-(3-(4-(cyclopentylcarbonyl)piperazine-1-carbonyl)benzyl)quinazoline-2,4(1H,3H)-dione] | 27 nM | 35 nM | – |
| O=C(c1ccc(F)c(Cn2c(=O)[nH]c(=O)c3cc(Cl)ccc32)c1)N1CCN(C(=O)c2cccs2)CC1 [Example 126, 6-Chloro-1-(6-fluoro-3-(4-(thiophene-2-carbonyl)piperazine-1-carbonyl)benzyl)quinazoline-2,4(1H,3H)-dione] | 6.5 nM | 18 nM | – |
| O=C(c1ccc(F)c(Cn2c(=O)[nH]c(=O)c3cc(Cl)ccc32)c1)N1CCN(c2ccccn2)CC1 [Example 174, 6-Chloro-1-(6-fluoro-3-(4-(pyridin-2-yl)piperazine-1-carbonyl)benzyl)quinazoline-2,4(1H,3H)-dione] | 37 nM | 94 nM | – |
| C[C@]1(c2nc3c(C(N)=O)cccc3[nH]2)CCCN1 [ABT-888, reference compound] | – | – | EC50 [1]: 3490 nM; IC50 [2, 4]: 2640 nM |
| O=C(c1cccc(Cn2c(=O)[nH]c(=O)c3c(Cl)cccc32)c1)N1CCN(C(=O)C2CCCCC2)CC1 [Example 102, 5-Chloro-1-(3-(4-(cyclohexylcarbonyl)piperazine-1-carbonyl)benzyl)quinazoline-2,4(1H,3H)-dione] | 26 nM | 87 nM | – |
| O=C(c1cccc(Cn2c(=O)[nH]c(=O)c3ccc(F)cc32)c1)N1CCN(C(=O)C2CCCC2)CC1 [Example 77, 1-(3-(4-(Cyclopentylcarbonyl)piperazine-1-carbonyl)benzyl)-7-fluoroquinazoline-2,4(1H,3H)-dione] | 5210 nM | 2960 nM | – |
| O=C(c1cccc(Cn2c(=O)[nH]c(=O)c3ccccc32)c1F)N1CCN(c2ncccn2)CC1 [Example 61, 1-(2-Fluoro-3-(4-(pyrimidin-2-yl)piperazine-1-carbonyl)benzyl)quinazoline-2,4(1H,3H)-dione] | 17 nM | 61 nM | – |
| O=C(c1ccc(F)c(Cn2c(=O)[nH]c(=O)c3ccccc32)c1)N1CCN(C(=O)C2CCC2)CC1 [Example 53, 1-(3-(4-(Cyclobutylcarbonyl)piperazine-1-carbonyl)-6-fluorobenzyl)quinazoline-2,4(1H,3H)-dione] | 18 nM | 59 nM | – |
| O=C(c1cc(Cn2c(=O)[nH]c(=O)c3cc(Cl)ccc32)ccc1F)N1CCN(c2ccccn2)CC1 [Example 120, 6-Chloro-1-(4-fluoro-3-(4-(pyridin-2-yl)piperazine-1-carbonyl)benzyl)quinazoline-2,4(1H,3H)-dione] | 8.8 nM | 42 nM | – |
| O=C(c1cc(Cn2c(=O)[nH]c(=O)c3c(F)cccc32)ccc1F)N1CCC(c2ccccc2)CC1 [Example 214, 5-Fluoro-1-(4-fluoro-3-(4-phenylpiperidine-1-carbonyl)benzyl)quinazoline-2,4(1H,3H)-dione] | 654 nM | 517 nM | – |
| O=C(O)c1cccc(Cn2c(=O)[nH]c(=O)c3ccccc32)c1 [Example 2, 1-(3-Carboxybenzyl)quinazoline-2,4(1H,3H)-dione] | > 10000 nM | > 10000 nM | – |
| O=C(c1cccc(CCn2c(=O)[nH]c(=O)c3ccccc32)c1)N1CCN(c2ncccn2)CC1 [Example 229, 1-(3-(4-(Pyrimidin-2-yl)piperazine-1-carbonyl)phenethyl)quinazoline-2,4(1H,3H)-dione] | > 10000 nM | > 10000 nM | – |
| O=C(c1cccc(Cn2c(=O)[nH]c(=O)c3cccc(F)c32)c1)N1CCN(C(=O)C2CCCCC2)CC1 [Example 138, 1-(3-(4-(Cyclohexylcarbonyl)piperazine-1-carbonyl)benzyl)-8-fluoroquinazoline-2,4(1H,3H)-dione] | 281 nM | 351 nM | – |
| O=C(c1ccco1)N1CCN(C(=O)c2cc(Cn3c(=O)[nH]c(=O)c4ccccc43)ccc2F)CC1 [Example 47, 1-(4-Fluoro-3-(4-(furan-2-carbonyl)piperazine-1-carbonyl)benzyl)quinazoline-2,4(1H,3H)-dione] | 2.6 nM | 54 nM | – |
| COc1ccc(CC(=O)Nc2cccc(Cn3c(=O)[nH]c(=O)c4ccccc43)c2)cc1OC [Example 197, 1-(3-(3,4-Dimethoxyphenyl)acetamidobenzyl)quinazoline-2,4(1H,3H)-dione] | > 10000 nM | > 10000 nM | – |
| O=C(c1cccc(Cn2c(=O)[nH]c(=O)c3cc([N+](=O)[O-])ccc32)c1)N1CCN(c2ncccn2)CC1 [Example 91, 6-Nitro-1-(3-(4-(pyrimidin-2-yl)piperazine-1-carbonyl)benzyl)quinazoline-2,4 (1H,3H)-dione] | 1990 nM | > 10000 nM | – |
| O=C(c1cccc(Cn2c(=O)[nH]c(=O)c3ccccc32)c1)N1CCC(c2noc3cc(F)ccc23)CC1 [Example 31, 1-(3-(4-(6-Fluorobenzo[d]isoxazol-3-yl)piperidine-1-carbonyl)benzyl)quinazoline-2,4(1H,3H)-dione] | 112 nM | 2600 nM | – |
| O=C(c1cccc(Cn2c(=O)[nH]c(=O)c3cc([N+](=O)[O-])ccc32)c1)N1CCN(C(=O)C2CCCCC2)CC1 [Example 92, 1-(3-(4-(Cyclohexylcarbonyl)piperazine-1-carbonyl)benzyl)-6-nitroquinazoline-2,4(1H,3H)-dione] | 2930 nM | > 10000 nM | – |
| O=C(c1cccnc1)N1CCN(C(=O)c2cccc(Cn3c(=O)[nH]c(=O)c4ccccc43)c2)CC1 [Example 36, 1-(3-(4-(Pyridine-3-carbonyl)piperazine-1-carbonyl)benzyl)quinazoline-2,4(1H,3H)-dione] | > 10000 nM | > 10000 nM | – |
| 1-(3-(5-Bromopyrimidin-2-aminocarbamoyl)-4-fluorobenzyl)-5-fluoroquinazoline-2,4(1H,3H)-dione [Example 205] | – | – | EC50 [1]: > 10000 nM; IC50 [2, 4]: > 10000 nM |
| O=C(c1ccc(F)cc1)N1CCN(C(=O)c2cccc(Cn3c(=O)[nH]c(=O)c4ccccc43)c2)CC1 [Example 9, 1-(3-(4-(4-Fluorobenzoyl)piperazine-1-carbonyl)benzyl)quinazoline-2,4(1H,3H)-dione] | 426 nM | 500 nM | – |
| O=C(c1cc(Cn2c(=O)[nH]c(=O)c3c(F)cccc32)ccc1F)N1CCN(c2ncccn2)CC1 [Example 193, 5-Fluoro-1-(4-fluoro-3-(4-(pyrimidin-2-yl)piperazine-1-carbonyl)benzyl)quinazoline-2,4(1H,3H)-dione hydrochloride] | – | – | EC50 ([1]; hydrochloride): 1.6 nM; IC50 ([2]; read-out: IC50 (nM), potentiation of the growth inhibiting activity of MMS, SW620 cells, 1.7 μg/ml MMS, 5 days (120 hours), MTT, hydrochloride): 4.5 nM |
| O=C(c1cccc(Cn2c(=O)[nH]c3c(Cl)cccc3c2=O)c1)N1CCN(c2ncccn2)CC1 [Example 223, 8-Chloro-3-(3-(4-(pyrimidin-2-yl)piperazine-1-carbonyl)benzyl)quinazoline-2,4(1H,3H)-dione] | > 10000 nM | > 10000 nM | – |
| Cc1cccc2c(=O)n(Cc3cccc(C(=O)N4CCN(c5ncccn5)CC4)c3)c(=O)[nH]c12 [Example 225, 8-Methyl-3-(3-(4-(pyrimidin-2-yl)piperazine-1-carbonyl)benzyl)quinazoline-2,4(1H,3H)-dione] | > 10000 nM | > 10000 nM | – |

Source: patent publication US9926304B2, “1-(arylmethyl)quinazoline-2,4(1H,3H)-diones as PARP inhibitors and the use thereof” (Impact Therapeutics, Inc., priority 2011, dated 2018)
